Laboratory results from patent publication US9896710B2, “Glycosyltransferase derived from Dolwoe and use thereof” (KOREA ADVANCED INSTITUTE OF SCIENCE AND TECHNOLOGY, priority 2014, dated 2018).

Tested on: UDP-glycosyltransferase GpUGT23
Test: In vitro glycosyltransferase assay of purified recombinant GpUGT23 with ginsenoside substrates and UDP-glucose
Format: biochemical, Dolwoe (Gynostemma pentaphyllum)
Conditions: purified GpUGT23 30 μg, ginsenoside 5 mM, UDP-glucose 50 mM, 10 mM PBS pH 7, 37° C., 12 hours, products: CK->gypenoside LXXV, F2->gypenoside XVII, Rd->Rb1, F1->notoginsenoside U; for conversion of the ginsenoside by GpUGT23 (glycosyltransfer activity), HPLC: UV 203 nm (FIGS. 3 and 4); for conversion of the ginsenoside by GpUGT23 (glycosyltransfer activity), TLC: TLC (FIG. 2)
Method: A glycosyltransferase assay was performed in a reaction buffer (10 mM PBS buffer, pH 7) containing the purified GpUGT23 (30 μg), a ginsenoside compound (5 mM) and UDP-glucose (50 mM). For this assay, 4 different types of ginsenosides, including CK (Compound K), F2, Rd, and F1, were used and reacted with the enzyme of the present invention.
The reaction mixture was incubated at 37° C. for 12 hours, and then the products were analyzed by thin-layer chromatography (TLC) or high performance liquid chromatography (HPLC).
TLC analysis was performed using a mobile phase (acetone:methanol:DDW=65:35:10 vol/vol) and a 60F254 silica gel plate (Merck, Germany). The resolved product on the TLC plate was detected by spraying the plate with 10% (vol/vol) sulfuric acid (H2SO4) and heating it at 110° C. for 5 minutes (FIG. 2).
HPLC analysis was performed using ODS(2) C18 column (Phenomenex, USA). Water and acetonitrile gradient application time and a component ratio are as follows: at a flow rate of 1 mL per minute, at 0 minutes, 68% water and 32% acetonitrile; 8 minutes, 35% water and 65% acetonitrile; 12 minutes, 0% water and 100% acetonitrile; 20 minutes, 0% water and 100% acetonitrile; 20.1 minutes, 68% water and 32% acetonitrile; and 28 minutes, 68% water and 32% acetonitrile (FIGS. 3 and 4).
Ginsenosides were detected by using a UV-detector (Agilent, USA) at a wavelength of 203 nm.
Substrate specificity and regioselectivity of GpUGT23 were examined by the method described in Example 2.
First, the recombinant GpUGT of Example 1, GpUGT23, was reacted with 9 types of ginsenosides (PPD, Rh2, Rg3, CK, F2, Rd, PPT, F1, and Rh1) in the presence of UDP-glucose, and the reaction products of CK, F2, Rd, and F1 were analyzed by TLC (thin-layer chromatography).
To further analyze these, 4 different types of ginsenosides (CK, F2, Rd, and F1) were incubated with GpUGT23, and then the products converted by the recombinant GpUGT23 were analyzed by TLC, and the results are shown in FIG. 2. The results were confirmed by comparing their migrating spots with migrating spots of CK, Gyp75 (gypenoside LXXV), F2, Gyp17 (gypenoside XVII), Rd, Rb1, and F1 used as reference samples.

Compound	conversion of the ginsenoside by GpUGT23 (glycosyltransfer activity), HPLC	conversion of the ginsenoside by GpUGT23 (glycosyltransfer activity), TLC
CC(C)=CCCC(C)(O)[C@H]1CC[C@]2(C)[C@@H]1[C@H](O)C[C@@H]1[C@@]3(C)CC[C@H](O)C(C)(C)[C@@H]3CC[C@]12C (stereo in doubt) [PPD, protopanaxadiol]	did not react	
CC(C)=CCC[C@](C)(O[C@@H]1O[C@H](CO)[C@@H](O)[C@H](O)[C@H]1O)[C@H]1CC[C@]2(C)[C@@H]1[C@H](O)C[C@@H]1[C@@]3(C)CC[C@H](O)C(C)(C)[C@@H]3CC[C@]12C [CK, Compound K]	converted	converted
CC(C)=CCC[C@](C)(O[C@@H]1O[C@H](CO)[C@@H](O)[C@H](O)[C@H]1O)[C@H]1CC[C@]2(C)[C@@H]1[C@H](O)C[C@@H]1[C@@]3(C)CC[C@H](O)C(C)(C)[C@@H]3[C@@H](O)C[C@]12C [F1]	converted	converted
CC(C)=CCC[C@](C)(O[C@@H]1O[C@H](CO)[C@@H](O)[C@H](O)[C@H]1O)[C@H]1CC[C@]2(C)[C@@H]1[C@H](O)C[C@@H]1[C@@]3(C)CC[C@H](O[C@@H]4O[C@H](CO)[C@@H](O)[C@H](O)[C@H]4O)C(C)(C)[C@@H]3CC[C@]12C [F2]	converted	converted
CC(C)=CCC[C@](C)(O)[C@H]1CC[C@]2(C)[C@@H]1[C@H](O)C[C@@H]1[C@@]3(C)CC[C@H](O)C(C)(C)[C@@H]3[C@@H](O)C[C@]12C [PPT, protopanaxatriol]	did not react	
CC(C)=CCC[C@](C)(O[C@@H]1O[C@H](CO)[C@@H](O)[C@H](O)[C@H]1O)[C@H]1CC[C@]2(C)[C@@H]1[C@H](O)C[C@@H]1[C@@]3(C)CC[C@H](O[C@@H]4O[C@H](CO)[C@@H](O)[C@H](O)[C@H]4O[C@@H]4O[C@H](CO)[C@@H](O)[C@H](O)[C@H]4O)C(C)(C)[C@@H]3CC[C@]12C [Rd]	converted	converted
CC(C)=CCC[C@](C)(O)[C@H]1CC[C@]2(C)[C@@H]1[C@H](O)C[C@@H]1[C@@]3(C)CC[C@H](O)C(C)(C)[C@@H]3[C@@H](O[C@@H]3O[C@H](CO)[C@@H](O)[C@H](O)[C@H]3O[C@@H]3O[C@@H](C)[C@H](O)[C@@H](O)[C@H]3O)C[C@]12C [Rg2]	did not transfer a sugar	
CC(C)=CCC[C@](C)(O)[C@H]1CC[C@]2(C)[C@@H]1[C@H](O)C[C@@H]1[C@@]3(C)CC[C@H](O[C@@H]4O[C@H](CO)[C@@H](O)[C@H](O)[C@H]4O[C@@H]4O[C@H](CO)[C@@H](O)[C@H](O)[C@H]4O)C(C)(C)[C@@H]3CC[C@]12C [Rg3]	did not react	
CC(C)=CCC[C@](C)(O)[C@H]1CC[C@]2(C)[C@@H]1[C@H](O)C[C@@H]1[C@@]3(C)CC[C@H](O)C(C)(C)[C@@H]3[C@@H](O[C@@H]3O[C@H](CO)[C@@H](O)[C@H](O)[C@H]3O)C[C@]12C [Rh1]	did not react	
CC(C)=CCC[C@](C)(O)[C@H]1CC[C@]2(C)[C@@H]1[C@H](O)C[C@@H]1[C@@]3(C)CC[C@H](O[C@@H]4O[C@H](CO)[C@@H](O)[C@H](O)[C@H]4O)C(C)(C)[C@@H]3CC[C@]12C [Rh2]	did not react	
